# Laboratory results: patent US20220142967A1, “Methods and Compositions for the Treatment of Multiple Sclerosis” (SYMBIONYX PHARMACEUTICALS INC, priority 2018, published 2022)
# Structures can show the parent of a compound that is named as a salt.
# Experiments:
# [1] = test system: cultured human keratinocytes (KCs); assay: Microarray genome-wide expression, IDMF vs. CTL, MS-associated genes; format: cell-based
# Method: RNA sample processing and microarray hybridizations were performed using the Affymetrix Human Genome U133 Plus 2.0 array platform. DNA microarray samples evaluated included IDMF- and vehicle-treated KCs (n=2 replicates per group). Samples were normalized using the robust multichip average (RMA) algorithm. Identification of probe sets with detectable expression was performed using the MAS 5.0 method, which identifies probe sets with above-background expression based upon the Wilcoxon signed rank test. To limit redundancy in downstream analyses, a single probe set was chosen to represent each protein-coding human gene featured on the microarray platform. This representative was chosen as the probe set with highest expression for each protein-coding human gene. These probe sets were then additionally filtered to include only those with detectable expression in at least 1 of the 4 samples (P<0.05, Wilcoxon signed rank test). Overall, this yielded a total of 12330 protein-coding genes that were included in analyses, with each gene represented by a single representative probe set. Bayesian linear models and moderated t-statistics were then used to evaluate differential expression for each of the 12330 genes (IDMF vs. CTL treatment; R package: limma). To control the false discovery rate (FDR), raw p-values generated from linear model analyses were adjusted using the Benjamini-Hochberg method.
# Genes associated with multiple sclerosis were identified based upon four established database sources: (1) the NHGRI-EBI genome-wide association (GWA) study catalogue, (2) the Disease Ontology (DO) database, (3) the DisGeNET database, and (4) the Medical Subject Heading (MESH) database. While there is some overlap between the various databases, the variation in identified genes from one database to the other reflects the fact that the science is still developing and has uncertainties. Nevertheless, as discussed below, efforts were undertaken to hone in on genes common to multiple databases. […]
# [2] = test system: cultured astrocytes; assay: RNA-seq of cultured astrocytes compared with MS patient white matter astrocytes (GSE83670); format: cell-based, human
# Method: Previously, Waller et al. 2016 (J Neuroimmunol 299:139-146) used laser capture microdissection (LCM) to isolate astrocytes from normal appearing white matter in MS patients and CTL subjects (GEO dataset GSE83670; PMID: 27125112).
# cDNA sequencing was performed by the University of Michigan sequencing core facility (50 cycle single end Illumina HiSeq 2000). The FASTX-Toolkit was used to filter reads by removing low quality sequences and initial quality assessments were performed using FastQC. Quality-filtered reads were mapped to the human genome (hg38/GRCh38, UCSC) using tophat2 with default settings, except multi-mapping of reads to multiple genome locations was disallowed (settings: -g 1 —no-coverage-search). The hg38/GRCh38 genome is the most recent release available from UCSC. HTSeq was used to tabulate the number of reads mapping to each genome feature and Cufflinks was used to calculate FPKM estimates and associated confidence intervals. RSeQC was used to assess quality of mapping and calculate the percentage of mapped reads. The negative binomial model (edgeR) was used to evaluate differential expression, with read counts normalized using the weighted trimmed mean of M-values method, and dispersions estimated using the Cox-Reid (CR)-adjusted likelihood approach. Differential expression analyses were performed using genes with detectable expression in at least 1 of 4 samples involved in a given comparison. A gene was considered to have detectable expression in a sample if the count per million mapped reads (cpm) estimate was greater than 0.20 and if the lower bound of the FPKM 95% confidence interval was greater than zero.
# FIG. 3 presents in scatterplot and histogram format the results of the study on the astrocytes. Scatterplots (A) and (D) compare fold change (FC) estimates in DMF-treated (A) and IDMF-treated (D) astrocytes to LCM-dissected astrocytes in MS patients and healthy controls (CTLs). Each point represents a protein-coding gene and the light colored ellipses outline the 90% of genes closest to the bivariate mean based upon the Mahalanobis distance. The Spearman rank correlation coefficient estimate is shown (upper-left). The proportion of genes within each quadrant is indicated in the upper margin (P<0.05, Fisher's exact test), wherein the quadrants are defined by a vertical and horizontal line through the “1” in each axis with the proportion corresponding, left to right to the upper left, the upper right, the lower right and lower left quadrants, respectively. Gene set overlap is presented in (B), (C), (E) and (F) wherein genes within each set were altered with a P<0.05 threshold. P-values from the test of overlap significance are shown (bottom margin, Fisher's exact test). […]
# [3] = genes common to at least two of four databases
compound,measurement,setting,value
"COC(=O)/C=C/C(=O)O[C@H]1CO[C@H]2[C@@H]1OC[C@H]2OC(=O)/C=C/C(=O)OC [IDMF, isosorbide di-(methyl fumarate)]",average fold-change (IDMF/CTL) of MS-associated genes vs. randomly sampled gene sets,"[1]; 76 MS-associated genes from the Disease Ontology (DO) database, P<0.001",significantly lower
same,MS-associated genes most strongly decreased,[1]; [3],"ICAM1, PLAT, and MMP9"
same,MS-associated genes most strongly increased,[1]; [3],"POPDC3, MMP3, and DDAH1"
same,number of genes decreased by IDMF (P<0.05) and increased in MS (P<0.05),[2],82 genes
same,protein-coding genes increased by IDMF (FC>1.00) but decreased in MS patients (FC<1.00),[2],35.08%
same,correlation of genome-wide expression responses with those observed in MS patients (Spearman r),[2]; cultured astrocytes vs. LCM-dissected MS patient astrocytes,negatively correlated
